Assay results reported in patent US7098340B2, “Benzyl sulfonamide derivatives” (Warner Lambert Company LLC, priority 2003, dated 2006).
pIC50: −log10 of the molar value.

Target: T1, androgen receptor (Homo sapiens, UniProt P10275)
T1 sequence (P10275 1-920 Q868H): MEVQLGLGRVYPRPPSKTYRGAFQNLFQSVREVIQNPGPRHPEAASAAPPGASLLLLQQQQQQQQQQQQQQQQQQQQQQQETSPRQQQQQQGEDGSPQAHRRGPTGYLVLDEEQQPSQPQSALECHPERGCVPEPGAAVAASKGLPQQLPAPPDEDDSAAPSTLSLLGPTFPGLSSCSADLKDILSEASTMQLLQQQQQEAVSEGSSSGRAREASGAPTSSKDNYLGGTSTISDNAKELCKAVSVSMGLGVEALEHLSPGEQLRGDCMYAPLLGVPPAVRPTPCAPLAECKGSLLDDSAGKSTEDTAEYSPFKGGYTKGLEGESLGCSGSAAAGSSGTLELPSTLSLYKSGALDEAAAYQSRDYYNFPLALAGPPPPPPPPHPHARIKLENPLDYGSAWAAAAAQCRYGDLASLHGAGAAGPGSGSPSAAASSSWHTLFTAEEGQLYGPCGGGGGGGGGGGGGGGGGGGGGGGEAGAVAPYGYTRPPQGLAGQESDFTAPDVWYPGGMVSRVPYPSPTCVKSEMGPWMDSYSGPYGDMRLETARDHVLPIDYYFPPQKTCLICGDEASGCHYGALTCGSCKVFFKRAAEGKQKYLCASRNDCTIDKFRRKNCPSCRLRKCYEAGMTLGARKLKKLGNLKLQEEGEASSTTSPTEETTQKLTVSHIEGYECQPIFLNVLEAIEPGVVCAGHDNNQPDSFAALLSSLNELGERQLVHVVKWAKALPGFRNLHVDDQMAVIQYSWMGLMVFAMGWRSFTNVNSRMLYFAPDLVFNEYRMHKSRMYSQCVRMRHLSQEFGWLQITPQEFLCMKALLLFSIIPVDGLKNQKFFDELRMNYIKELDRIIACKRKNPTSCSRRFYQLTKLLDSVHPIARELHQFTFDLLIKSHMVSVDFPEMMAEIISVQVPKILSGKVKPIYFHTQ
Experiment: AR Antagonist Cell Assay (MMTV-luciferase reporter, DHT-stimulated)
Format: cell-based
Settings: MDA-MB453-MMTV clone 54-19 cells; antagonism of 100 pM DHT, 17 hr, luciferase readout
Procedure: The compounds ability to antagonize the effects of androgen on the androgen receptor were determined in the protocol described immediately below.
Experimental Procedure for AR Antagonist Cell Assay
Cell line: MDA-MB453-MMTV clone 54–19. This cell line is a stable transfected cell line with MDA-MB453 cell background (human breast tumor cell expressing high level of androgen receptor). A MMTV minimal promoter containing ARE was first cloned in front of a firefly luciferase reporter gene. Then the cascade was cloned into transfection vector pUV120puro. Electroporation method was used for transfecting MDA-MB-453 cell. Puromycin resistant stable cell line was selected.
Cell Culture Media and Reagents:
Culture medium: DMEM (high glucose, Gibco cat #: 11960-044), 10% FBS, and 1% L-glutamine
Plating medium: DMEM (phenol red free), 10% charcoal treated HyClone serum, 1% L-glutamine
Assay medium: DMEM (phenol red free), 1% charcoal treated HyClone serum, 1% L-glutamine, and 1% penicillin/streptomycin
3× luciferase buffer: 2% beta-mercaptoethanol, 0.6% ATP, 0.0135% luciferine in cell lysis buffer
• 1. Cells are maintained in culture medium, splitting cells when they reach 80–90% confluence • 2. To test compounds, 10,000 cells/well are plated to opaque 96 cell culture plate in 100 ul/well plating medium, culture for overnight at 37° C. in cell culture incubator • 3. Carefully remove plating medium, then add 80 ul/well of pre-warmed assay medium, add 10 ul/well testing compound (final concentration at 10 uM or 1 uM), incubate at 37° C. for 30 minutes • 4. Add 10 ul/well freshly prepared DHT (final concentration at 100 pM) to each well, incubate at 37° C. for 17 hr (overnight) • 5. Add 50 ul/well 3× luciferase buffer, incubate at room temperature for 5 minutes, then count on Luminometer.
The fold induction over background by 100 pM DHT in the absence of testing compounds is standardized as 100% and experimental result is expressed as percentage of inhibition by testing compounds.

pIC50	SMILES
< 5.00	Cc1ccc(CNS(=O)(=O)c2ccc(Cc3ccc4[nH]c(=O)cc(C(F)(F)F)c4c3)cc2)o1 [Example 55, N-(5-Methylfuran-2-ylmethyl)-4-(2-oxo-4-trifluoromethyl-1,2-dihydroquinolin-6-ylmethyl)-benzenesulfonamide]
< 5.00	O=c1cc(C(F)(F)F)c2cc(Cc3ccc(S(=O)(=O)NCCc4ccccc4)cc3)ccc2[nH]1 [Example 57, 4-(2-Oxo-4-trifluoromethyl-1,2-dihydroquinolin-6-ylmethyl)-N-phenethylbenzenesulfonamide]
5.03	O=c1cc(C(F)(F)F)c2cc(Cc3ccc(S(=O)(=O)NCCc4ccccn4)cc3)ccc2[nH]1 [Example 59, 4-(2-Oxo-4-trifluoromethyl-1,2-dihydroquinolin-6-ylmethyl)-N-(2-pyridin-2-ylethyl)-benzenesulfonamide]
5.27	CC(CNS(=O)(=O)c1ccc(Cc2ccc3[nH]c(=O)cc(C(F)(F)F)c3c2)cc1)c1ccccc1 (stereo not drawn) [Example 65, 4-(2-Oxo-4-trifluoromethyl-1,2-dihydroquinolin-6-ylmethyl)-N-(2-phenylpropyl)-benzenesulfonamide]
< 5.00	O=c1cc(C(F)(F)F)c2cc(Cc3ccc(S(=O)(=O)NCCCCc4ccccc4)cc3)ccc2[nH]1 [Example 70, 4-(2-Oxo-4-trifluoromethyl-1,2-dihydroquinolin-6-ylmethyl)-N-(4-phenylbutyl)-benzenesulfonamide]
< 5.00	CCOc1ccccc1CNS(=O)(=O)c1ccc(Cc2ccc3[nH]c(=O)cc(C(F)(F)F)c3c2)cc1 [Example 71, N-(2-Ethoxybenzyl)-4-(2-oxo-4-trifluoromethyl-1,2-dihydroquinolino-6-ylmethyl)-benzenesulfonamide]
< 5.00	O=c1cc(C(F)(F)F)c2cc(Cc3ccc(S(=O)(=O)NC(CCO)c4ccccc4)cc3)ccc2[nH]1 (stereo not drawn) [Example 72, N-(3-Hydroxy-1-phenylpropyl)-4-(2-oxo-4-trifluoromethyl-1,2-dihydroquinolin-6-ylmethyl)-benzenesulfonamide]
< 5.00	CSc1ccccc1CNS(=O)(=O)c1ccc(Cc2ccc3[nH]c(=O)cc(C(F)(F)F)c3c2)cc1 [Example 73, N-(2-Methylsulfanylbenzyl)-4-(2-oxo-4-trifluoromethyl-1,2-dihydroquinolin-6-ylmethyl)-benzenesulfonamide]
4.99	O=c1cc(C(F)(F)F)c2cc(Cc3ccc(S(=O)(=O)NCCc4c[nH]c5ccccc45)cc3)ccc2[nH]1 [Example 79, N-[2-(1H-Indol-3-yl)ethyl]-4-(2-oxo-4-trifluoromethyl-1,2-dihydroquinolin-6-ylmethyl)-benzenesulfonamide]
< 5.00	O=c1cc(C(F)(F)F)c2cc(Cc3ccc(S(=O)(=O)NCc4ccccc4OC(F)F)cc3)ccc2[nH]1 [Example 83, N-(2-Difluoromethoxybenzyl)-4-(2-oxo-4-trifluoromethyl-1,2-dihydroquinolin-6-ylmethyl)-benzenesulfonamide]

More lines, now with the values behind:

SMILES	pIC50
CC(C)(C)CCNS(=O)(=O)c1ccc(Cc2ccc3[nH]c(=O)cc(C(F)(F)F)c3c2)cc1 [Example 54, N-(3,3-Dimethylbutyl)-4-(2-oxo-4-trifluoromethyl-1,2-dihydroquinolin-6-ylmethyl)-benzenesulfonamide]	< 5.00
O=c1cc(C(F)(F)F)c2cc(Cc3ccc(S(=O)(=O)NCCN4CCCC4)cc3)ccc2[nH]1 [Example 56, 4-(2-Oxo-4-trifluoromethyl-1,2-dihydroquinolin-6-ylmethyl)-N-(2-pyrrolidin-1-yl-ethyl)-benzenesulfonamide]	5.44
Cc1cccc(CNS(=O)(=O)c2ccc(Cc3ccc4[nH]c(=O)cc(C(F)(F)F)c4c3)cc2)c1 [Example 58, N-(3-Methylbenzyl)-4-(2-oxo-4-trifluoromethyl-1,2-dihydroquinolin-6-ylmethyl)-benzenesulfonamide]	< 5.00
O=c1cc(C(F)(F)F)c2cc(Cc3ccc(S(=O)(=O)NCCCn4ccnc4)cc3)ccc2[nH]1 [Example 60, N-(3-Imidazol-1-ylpropyl)-4-(2-oxo-4-trifluoromethyl-1,2-dihydroquinolin-6-ylmethyl)-benzenesulfonamide]	5.04
O=c1cc(C(F)(F)F)c2cc(Cc3ccc(S(=O)(=O)NCCN4CCOCC4)cc3)ccc2[nH]1 [Example 62, N-(2-Morpholin-4-ylethyl)-4-(2-oxo-4-trifluoromethyl-1,2-dihydroquinolin-6-ylmethyl)-benzenesulfonamide]	5.18
Cc1ccc(F)cc1CNS(=O)(=O)c1ccc(Cc2ccc3[nH]c(=O)cc(C(F)(F)F)c3c2)cc1 [Example 67, N-(5-Fluoro-2-methylbenzyl)-4-(2-oxo-4-trifluoromethyl-1,2-dihydroquinolin-6-ylmethyl)-benzenesulfonamide]	5.08
O=C1CCCN1CCCNS(=O)(=O)c1ccc(Cc2ccc3[nH]c(=O)cc(C(F)(F)F)c3c2)cc1 [Example 68, N-[3-(2-Oxopyrrolidin-1-yl)propyl]-4-(2-oxo-4-trifluoromethyl-1,2-dihydroquinolin-6-ylmethyl)-benzenesulfonamide]	5.12
O=c1cc(C(F)(F)F)c2cc(Cc3ccc(S(=O)(=O)NCCc4ccc(Cl)cc4)cc3)ccc2[nH]1 [Example 74, N-[2-(4-Chlorophenyl)ethyl]-4-(2-oxo-4-trifluoromethyl-1,2-dihydroquinolin-6-ylmethyl)-benzenesulfonamide]	< 5.00
CN1CCN(CCCNS(=O)(=O)c2ccc(Cc3ccc4[nH]c(=O)cc(C(F)(F)F)c4c3)cc2)CC1 [Example 75, N-[3-(4-Methylpiperazin-1-yl)propyl]-4-(2-oxo-4-trifluoromethyl-1,2-dihydroquinolin-6-ylmethyl)-benzenesulfonamide]	5.17
O=c1cc(C(F)(F)F)c2cc(Cc3ccc(S(=O)(=O)NCc4cc(Cl)ccc4F)cc3)ccc2[nH]1 [Example 76, N-(5-Chloro-2-fluorobenzyl)-4-(2-oxo-4-trifluoromethyl-1,2-dihydroquinolin-6-ylmethyl)-benzenesulfonamide]	< 5.00
O=c1cc(C(F)(F)F)c2cc(Cc3ccc(S(=O)(=O)NCc4cccc(Cl)c4F)cc3)ccc2[nH]1 [Example 77, N-(3-Chloro-2-fluorobenzyl)-4-(2-oxo-4-trifluoromethyl-1,2-dihydroquinolin-6-ylmethyl)-benzenesulfonamide]	< 5.00
O=c1cc(C(F)(F)F)c2cc(Cc3ccc(S(=O)(=O)NCc4c(F)cccc4Cl)cc3)ccc2[nH]1 [Example 78, N-(2-Chloro-6-fluorobenzyl)-4-(2-oxo-4-trifluoromethyl-1,2-dihydroquinolin-6-ylmethyl)-benzenesulfonamide]	< 5.00
COc1cc(CNS(=O)(=O)c2ccc(Cc3ccc4[nH]c(=O)cc(C(F)(F)F)c4c3)cc2)cc(OC)c1 [Example 80, N-(3,5-Dimethoxybenzyl)-4-(2-oxo-4-trifluoromethyl-1,2-dihydroquinolin-6-ylmethyl)-benzenesulfonamide]	< 5.00
CC(C)(C)SCCNS(=O)(=O)c1ccc(Cc2ccc3[nH]c(=O)cc(C(F)(F)F)c3c2)cc1 [Example 82, N-(2-tert-Butylsulfanylethyl)-4-(2-oxo-4-trifluoromethyl-1,2-dihydroquinolin-6-ylmethyl)-benzenesulfonamide]	< 5.00
